What was measured:
HCC = settings: monotherapy of HCC; cited from earlier work
HuH7 xenografts = experiment: HSV1716 in combination with sorafenib in vivo in subcutaneous flank HuH7 xenografts; set-up: species or system nude mice
Method: Female 6-8 week old athymic nude mice (Charles River Labs, UK) were maintained under specific pathogen free conditions. Actively growing HuH7 cells were harvested and, after re-suspension in PBS, 1×10^6 cells per mouse were injected subcutaneously. Treatments were started when tumours reached 5 mm in diameter. Mice were inspected daily, when tumour diameters reached 15 mm they were sacrificed and the tumour xenograft removed for viral extraction. The viral load in tumours and various organs was assessed by plaque forming assay on Vero cells. Extracted intact tumours/organs were frozen immediately at −70° C. and, after thawing, the tissues were mechanically homogenized in a Retsch homogenizer in 1 ml PBS prior to titration.
Sorafenib for IP injections was obtained from Selleckchem UK, (S1040), and was reported as 100% pure. The dose was 10 mg/kg equivalent to 10 μg/g or 250 μg/mouse (25 g). The 0.1 ml intraperitoneal dose therefore required 250 μg/0.1 ml or 2.5 mg/ml. 50 mg sorafenib was dissolved in 0.5 ml DMSO and this was added to 19.5 ml PBS with 5% Tween80 and 5% PEG400 (both v/v). This is equivalent to c4 mM sorafenib. HSV1716gCluc which expresses luciferase from the HSV-1 gC promoter. The stock virus solution was 8×10^7 pfu/ml and 0.125 ml virus stock were added to 10 ml compound sodium lactate with 10% glycerol to give the injection solution at a titre of 1×10^6 pfu/ml. 0.1 ml injected it/mouse and is equivalent to 1×10^5 pfu.
In vivo combination with sorafenib and HSV1716 was analysed using the HuH7 subcutaneous xenograft HCC model in nude mice. Groups were—no treatment (n=10), sorafenib (n=6), HSV1716 (n=10), HSV1716 sorafenib (n=12). HSV1716gC-luc at 1×10^5 pfu was given on days 1, 3 and 9 and sorafenib at 10 mg/kg (Liu et al Cancer Res 2006; 66:11851-11858), was administered IP (Wang et al., Cancer Biol & Therapy 2011; 12:3, 229-238) every 2nd day from day 2 on 9 occasions. Virus was monitored by IVIS and tumour growth (FIG. 37) and survival (FIG. 38) were recorded.

With `CNC(=O)c1cc(Oc2ccc(NC(=O)Nc3ccc(Cl)c(C(F)(F)F)c3)cc2)ccn1` [sorafenib, 4-[4-[[4-chloro-3-(trifluoromethyl)phenyl]carbamoylamino]phenoxy]-N-methyl-pyridine-2-carboxamide] as the compound, how does the “prolongation of median survival and the time to progression” value (HCC) read?
Its value is about 3 months.

What about the “reduction of the risk of death during year 1” value (HCC) of the same compound?
Its value is 31%.

What about the xenograft growth (HuH7 xenografts; HuH7 xenografts (FIG. 37)) of the same compound?
Its xenograft growth is “inhibited”.

What about the mouse survival (HuH7 xenografts; HuH7 xenografts (FIG. 38)) of the same compound?
Its mouse survival is “survived longer than controls”.

What about the “period in which no mice died” value (HuH7 xenografts; HuH7 xenografts (FIG. 38), virus 1×10^5 pfu days 1, 3, 9, sorafenib 10 mg/kg IP) of the same compound?
The value was “about 4 days”.

— patent publication US20150125425A1, “TREATMENT OF LIVER CANCER” (priority 2012, published 2015)
